Data reported in ChEMBL document CHEMBL1149304, “1,3,4-thiadiazole derivatives. Synthesis, structure elucidation, and structure-antituberculosis activity relationship investigation” (2004).

System: Mycobacterium tuberculosis
Experiment: Antituberculosis activity against Mycobacterium tuberculosis H37Rv ATCC 27294 at 6.25 ug/mL
Format: functional

| Structure (SMILES) | inhibition at 6.25 µg/mL [%] |
| --- | --- |
| Clc1ccc(Nc2nnc(-c3ccncc3)s2)cc1 | 59 |
| Clc1ccc(Nc2nnc(-c3ccc(Cl)cc3)s2)cc1 | 32 |
| Clc1ccc(-c2nnc(Nc3ccc(Br)cc3)s2)cc1 | 34 |
| Cc1ccc(Nc2nnc(-c3ccccc3)s2)cc1 | 21 |
| O=[N+]([O-])c1ccc(Nc2nnc(-c3ccc(Cl)cc3)s2)cc1 | 44 |
| Brc1ccc(Nc2nnc(-c3ccccc3)s2)cc1 | 36 |
| O=[N+]([O-])c1ccc(Nc2nnc(-c3ccncc3)s2)cc1 | 18 |
| O=[N+]([O-])c1ccc(Nc2nnc(-c3ccc(F)cc3)s2)cc1 | 8 |
| Cc1ccc(Nc2nnc(-c3ccc([N+](=O)[O-])cc3)s2)cc1 | 33 |
| O=[N+]([O-])c1ccc(-c2nnc(Nc3ccc(F)cc3)s2)cc1 | 30 |
| O=[N+]([O-])c1ccc(-c2nnc(Nc3ccc(Cl)cc3)s2)cc1 | 29 |
| Fc1ccc(Nc2nnc(-c3ccc(F)cc3)s2)cc1 | 52 |
| Brc1ccc(Nc2nnc(-c3ccncc3)s2)cc1 | 53 |
| O=[N+]([O-])c1ccc(Nc2nnc(-c3ccc(Br)cc3)s2)cc1 | 43 |
| Fc1ccc(Nc2nnc(-c3ccncc3)s2)cc1 | 49 |
| Fc1ccc(-c2nnc(Nc3ccc(Br)cc3)s2)cc1 | 40 |

| Structure (SMILES) | inhibition at 6.25 µg/mL [%] |
| --- | --- |
| c1ccc(Nc2nnc(-c3ccncc3)s2)cc1 | 38 |
| Brc1ccc(Nc2nnc(-c3ccc(Br)cc3)s2)cc1 | 33 |
| Fc1ccc(Nc2nnc(-c3ccc(Cl)cc3)s2)cc1 | 54 |
| Clc1ccc(Nc2nnc(-c3ccccc3)s2)cc1 | 30 |
| Fc1ccc(-c2nnc(Nc3ccc(Cl)cc3)s2)cc1 | 42 |
| Cc1ccc(Nc2nnc(-c3ccc(F)cc3)s2)cc1 | 39 |
| O=[N+]([O-])c1ccc(Nc2nnc(-c3ccc([N+](=O)[O-])cc3)s2)cc1 | 20 |
| O=[N+]([O-])c1ccc(Nc2nnc(-c3ccccc3)s2)cc1 | 18 |
| Cc1ccc(Nc2nnc(-c3ccc(Cl)cc3)s2)cc1 | 42 |
| Fc1ccc(Nc2nnc(-c3ccc(Br)cc3)s2)cc1 | 42 |
| Brc1ccc(-c2nnc(Nc3ccccc3)s2)cc1 | 0 |
| Fc1ccc(Nc2nnc(-c3ccccc3)s2)cc1 | 50 |
| O=[N+]([O-])c1ccc(-c2nnc(Nc3ccc(Br)cc3)s2)cc1 | 26 |
| Cc1ccc(Nc2nnc(-c3ccncc3)s2)cc1 | 38 |
| Cc1ccc(Nc2nnc(-c3ccc(Br)cc3)s2)cc1 | 31 |
| Clc1ccc(Nc2nnc(-c3ccc(Br)cc3)s2)cc1 | 33 |
